According to US20040082550A1, “Tropolone derivative” (priority 2000, published 2004):

Tested on: promyelocyte leukemia cell strain HL-60
Assay: Test for induction of cell differentiation in HL-60 cells (NBT reduction ability)
Type: cell-based
Details: for Ratio of cells for which differentiation was induced by each compound alone (%): calculated from NBT reduction ability; for Ratio of cells for which differentiation was induced by each compound in combination with 1 × 10^−7 M of HX630 (%): in combination with 1×10^−7 M HX630 (retinoid synergist)
Procedure: For each of the compounds of the examples, action for inducing cell differentiation was examined for each alone and in combination with 1×10^−7 M of HX630. According to the methods described in Japanese Patent Unexamined Publication (KOKAI) No. (Sho)61-76440/1986, differentiation of the cells of promyelocyte leukemia cell strain HL-60 into granulocytic series cells was determined based on morphological change and measurement of ability to reduce nitro blue tetrazolium (NBT). The ratios (%) of differentiated cells shown in the following table are those calculated from NBT reduction ability. HX630 is a retinoid synergist that enhances actions of retinoids, and the concentrations of −8, −7 and −6 mean that each compound was added at concentrations of 1×10^−8 M, 1×10^−7 M and 1×10^−6 M, respectively.

[1] = compound concentration -6 (1×10^−6 M)
[2] = compound concentration -7 (1×10^−7 M)
[3] = compound concentration -8 (1×10^−8 M)

| SMILES | Ratio of cells for which differentiation was induced by each compound alone (%) (concentration -6 (1×10^−6 M)) | Ratio of cells for which differentiation was induced by each compound alone (%) (concentration -7 (1×10^−7 M)) | Ratio of cells for which differentiation was induced by each compound alone (%) (concentration -8 (1×10^−8 M)) | Ratio of cells for which differentiation was induced by each compound in combination with 1 × 10^−7 M of HX630 (%) [1] | Ratio of cells for which differentiation was induced by each compound in combination with 1 × 10^−7 M of HX630 (%) [2] | Ratio of cells for which differentiation was induced by each compound in combination with 1 × 10^−7 M of HX630 (%) [3] |
| --- | --- | --- | --- | --- | --- | --- |
| Cc1cc2c(cc1N(C)c1ccc(O)c(=O)cc1)C(C)(C)CCC2(C)C [Tp22] | 18% | 2.4% | 2.8% | 78% | 3.3% | 2.1% |
| CC1(C)CCC(C)(C)c2cc(C(=O)Nc3ccc(O)c(=O)cc3)ccc21 [Tp80] | 21% | 26% | 7% | 79% | 85% | 82% |
| Cc1cc2c(cc1C(=O)Nc1ccc(O)c(=O)cc1)C(C)(C)CCC2(C)C [Tp84] | 26% | 5% | 0.7% | 90% | 89% | 15% |
| CC1(C)CCC(C)(C)c2cc(Nc3ccc(O)c(=O)cc3)ccc21 [Tp10] | 3.3% | 2.9% | 6.8% | 5.6% | 2.9% | 3% |
| CC1(C)CCC(C)(C)c2cc(N=Nc3ccc(O)c(=O)cc3)ccc21 [Tp160] | 32% | 34.4% | 18.5% | 90% | 84% | 81% |
| CC1(C)CCC(C)(C)c2cc(C=CC(=O)Nc3ccc(Cl)c(=O)cc3)ccc21 [Tp93] | 9% | 0.8% | 0.6% | 40% | 0.8% | 3.6% |
| CC1(C)CCC(C)(C)c2cc(C=CC=CC(=O)Nc3ccc(O)c(=O)cc3)ccc21 [Tp95] | 0.3% | 0.5% | 0.5% | 1.7% | 0.5% | 0.8% |
| CC1(C)CCC(C)(C)c2cc(CCc3ccc(O)c(=O)cc3)ccc21 [Tp150] | 60% | 5.4% | 1.5% | 50% | 80% | 9% |
